Laboratory results taken from PMC10119930, “Dual Molecules Targeting 5-HT6 and GABA-A Receptors as a New Approach to Combat Depression Associated with Neuroinflammation” (ACS Chemical Neuroscience, 2023).

What was measured:
BV-2 microglia cells = assay: Anti-inflammatory assessment in LPS-stimulated BV-2 cells (NO, ROS, IL-6, TNF-α); assay type: cell-based, mouse; conditions: 10 μM pretreatment 1 h, then LPS 18 h
Protocol: Mouse microglial (BV-2) cell line was a generous gift from Prof. Bożena Kamińska-Kaczmarek of the Nencki Institute of Experimental Biology, Polish Academy of Sciences, Warsaw, Poland. The cell culture medium: Dulbecco’s modified with high glucose (DMEM, Glutamx ThermoFisher) and supplemented with 10% inactivated fetal bovine serum heat (ThermoFisher), 100 IU/mL penicillin (Merck) and 100 μg/mL streptomycin (Merck). Cell culture conditions: culture flasks (area 175 cm^2, Nunc), temperature of 37 °C, 5% CO2. For the assessment of the effect of tested compounds on the quantities of reactive oxygen species, nitric oxide, and inflammatory markers, the BV-2 cells were positioned in a 96-well culture plate (5 × 10^4 cells per well, Falcon). In the case of cell membrane damage assay, a 96-well culture plate (2 × 10^4 cells per well, Falcon) was used. The cells were cultured in the incubator (37 °C, 5% CO2) for 24 h prior to the assay. The tested compounds were dissolved in DMSO to achieve the concentration of 10^–2 M. Serial dilutions of the compounds were prepared in PBS and added directly to the medium containing adherent cells. The resulting mixtures were examined for any evidence of precipitation or opalescence before the assay. BV-2 cells were incubated with selected molecules (6, 16 at a concentration of 10 μM) during 1 h. Subsequently, lipopolysaccharide (100 ng/mL) was added and the resulting mixture was incubated for 18 h. Next, the culture supernatant was collected to measure the levels of nitric oxide (NO), reactive oxygen species (ROS), IL-6, and TNF-α according to the procedures described in detail below. All experiments were performed in duplicates, in three independent experiments.
The quantities of NO produced by the cells were determined using DAN reagent (2,3-diaminonaphthalene), rendering the method protocol described by Nussler et al.[48] After incubating at room temperature for 15 min, the fluorescence intensity (EX 360; EM 440 nm) was measured using a microplate reader POLARstar Omega from BMG Labtech. The amounts of NO were then calculated as a percentage of the control (which represents the maximal response of LPS). ROS measurement. The fluorescent dye 2,7-dichlorodihydrofluorescein diacetate (DCFH-DA)[49] was utilized to determine the quantity of ROS released by BV-2 cells. After a 30 min incubation period at 37 °C with 10 μM DCFH-DA, the fluorescence intensity (EX 490; EM 520 nm) was examined using a microplate reader POLARstar Omega from BMG Labtech. The amounts of ROS were then expressed as a percentage of the control (which represents the maximal response of LPS). The IL-6 and TNF-α levels detected in the culture supernatants were quantified using LANCE Ultra TR-FRET detection kit (PerkinElmer), rendering the manufacturer’s procedure. The detection of IL-6 and TNF-α was performed independently in a 384-well plate according to the instructions provided. To each well of the plate, 15 μL of sample was added followed by the addition of 5 μL of premixed antibody solution. After incubating IL-6 for 1 h and TNF-α for 3 h in the absence of light, at 22 °C, the plates were transferred to an EnVision plate reader (PerkinElmer). Measurements were conducted at 320 nm wavelength for excitation, at 615 nm for donor emission, and at 660 nm for acceptor emission. The final data were determined as the ratio of the 660 nm signal to the 615 nm signal. The results represent the levels of each cytokine determined as a percentage of control (considered as maximal cell response to LPS). The GraphPad program was used to conduct statistical analysis, with all outcomes presented as mean values with standard deviation (SD). Differences between groups were assessed using one-way ANOVA, followed by post hoc analysis (Dunnett’s multiple comparison tests). Results were considered statistically significant if the p-value was less than 0.05. […]

[1] = molecular target: muscimol site of the GABA-A receptor; assay: Radioligand binding assay for GABA-A receptor ([3H]muscimol displacement, rat brain homogenate); conditions: competitive replacement of [3H]muscimol; ±S.E.M.
Protocol: The study was acquired according to the earlier protocols.[39] The rats’ brains were homogenized and prepared accurately according to the previous protocol.[39] On the day of the study, brain homogenates were thawed at room temperature and “diluted” in 20 volumes of ice-cold 50 mM Tris-HCl buffer (pH 7.4) and centrifuged (20.000g, 30 min, 0–4 °C). The assay was performed directly on 96-well microplates, which contained 50 mM Tris-HCl buffer (pH 7.4) in a total volume of 300 μL. Reaction mix included 240 μL of the brain tissue suspension, 30 μL of [^3H]-muscimol, and 30 μL solution of tested compounds (administrated at various concentrations: 10^–10–10^–5 M). […] The 96-well microplates containing the reaction mix were incubated for 10 min at 0 °C, followed by rapid filtration over glass fiber filters FilterMate B (PerkinElmer, USA) using the Harvester-96 MACH III FM (Tomtec, USA). The filter mats were dried using a microwave and then placed inside a plastic bag (PerkinElmer, USA). After that, they were soaked in 10 mL of Ultima Gold MV liquid scintillation cocktail (PerkinElmer, USA). […] Ki values were estimated according to the Cheng and Prusoff equation. The study was performed in duplicates. The statistical analysis was performed using (GraphPad Prism, version 4.0, San Diego, CA, USA).

## Cc1c(OCc2ccccc2)cccc1N1CCN(CCOC(=O)CCCN)CC1.Cl.Cl [Compound 16, 1-(2-((4-Ammoniobutanoyl)oxy)ethyl)-4-(3-(benzyloxy)-2-methylphenyl)piperazin-1-ium Dichloride]
BV-2 microglia cells
  LPS-induced IL-6 production: significantly decreased
  LPS-induced NO production: significantly decreased
  LPS-induced ROS production: significantly decreased
  LPS-induced TNF-α production: significantly decreased
[1]
  Ki: 147 ± 12.7 nM
